Assay results taken from patent publication US11098010B2 (priority 2017, dated 2021).
Where a name gives a salt, the structure may show the parent alone. Read-outs that look alike come from different tables or passages of the source.

Test system: HBV rcDNA in HepDE19 cells
Experiment: HepDE19 assay with bDNA quantitation of HBV rcDNA
Format: cell-based, hepatitis B virus (HBV)
[1] = Hepatitis B virus, HepDE19, 168 h, HepDE19 cells, inhibition of rcDNA formation, 7 day incubation, top concentration 25 μM, read-out: DE-19 bDNA EC50
[2] = Hepatitis B virus, HepDE19, 168 h, read-out: DE-19 bDNA EC50 (μM), HepDE19 cells, inhibition of rcDNA formation, 7 day incubation, top concentration 25 μM
[3] = read-out: DE-19 bDNA EC50, HepDE19 cells, inhibition of rcDNA formation, 7 day incubation, top concentration 25 μM

Row | SMILES | EC50 [2] [µM] | other results
1 | O=C(N[C@H]1CCc2c(C(=O)Nc3ccc(F)c(Cl)c3)ccc(F)c21)c1cnco1 [Compound 129, (S)—N-(4-((3-Chloro-4-fluorophenyl)carbamoyl)-7-fluoro-2,3-dihydro-1H-inden-1-yl)oxazole-5-carboxamide] |  | EC50 [1]: 0.41 µM
2 | COC(=O)N[C@@H]1c2cccc(C(=O)Nc3ccc(F)c(Cl)c3)c2C[C@H]1OC [Compound 130, O-Methyl, N-((1R,2R)-4-((3-chloro-4-fluorophenyl)carbamoyl)-2-methoxy-2,3-dihydro-1H-inden-1-yl)carbamate] | 0.1 | 
3 | O=C(N[C@H]1CCc2c(C(=O)Nc3ccc(F)c(Cl)c3)ccc(F)c21)OC1CCCC1 [Compound 131, O-Cyclopentyl, N—(S)-(4-((3-chloro-4-fluorophenyl)carbamoyl)-7-fluoro-2,3-dihydro-1H-inden-1-yl)carbamate] |  | EC50 [1]: 0.59 µM
4 | O=C(N[C@H]1CCc2c(C(=O)Nc3ccc(F)c(Cl)c3)ccc(F)c21)OCC1CNC(=O)O1 (stereo partly drawn) [Compound 132, O-(2-Oxooxazolidin-5-yl)methyl, N—((S)-4-((3-chloro-4-fluorophenyl)carbamoyl)-7-fluoro-2,3-dihydro-1H-inden-1-yl) carbamate] | 0.22 | 
5 | O=C(N[C@H]1CCc2c(C(=O)Nc3ccc(F)c(Cl)c3)ccc(F)c21)OCCn1cccn1 [Compound 133, O-2-(1H-Pyrazol-1-yl)ethyl, N—(S)-(4-((3-chloro-4-fluorophenyl)carbamoyl)-7-fluoro-2,3-dihydro-1H-inden-1-yl) carbamate] | 0.15 | 
6 | CC1(C)Cc2c(C(=O)Nc3ccc(F)c(Cl)c3)ccc(F)c2C1NC(=O)OCc1ccccn1 (centres unmarked) [Compound 135, O-Pyridin-2-ylmethyl, N-(4-((3-chloro-4-fluorophenyl)carbamoyl)-7-fluoro-2,2-dimethyl-2,3-dihydro-1H-inden-1-yl) carbamate] |  | EC50 [3]: 8.4 µM
7 | CC1(C)Cc2c(C(=O)Nc3ccc(F)c(Cl)c3)ccc(F)c2C1NC(=O)OCc1ccccn1 (centres unmarked) [Compound 136, O-Pyridin-2-ylmethyl, N-(4-((3-chloro-4-fluorophenyl)carbamoyl)-7-fluoro-2,2-dimethyl-2,3-dihydro-1H-inden-1-yl) carbamate] |  | EC50 [3]: 0.29 µM
8 | Cn1ccnc1COC(=O)N[C@H]1CCc2c(C(=O)Nc3ccc(F)c(Cl)c3)ccc(F)c21 [Compound 137, O-(1-Methyl-1H-imidazol-2-yl)methyl, N—(S)-(4-((3-chloro-4-fluorophenyl)carbamoyl)-7-fluoro-2,3-dihydro-1H-inden-1-yl) carbamate] |  | EC50 [1]: 0.1 µM
9 | O=C(N[C@H]1CCc2c(C(=O)Nc3ccc(F)c(Cl)c3)ccc(F)c21)OCc1ncccc1F [Compound 138, O-(3-Fluoropyridin-2-yl)methyl, N—(S)-(4-((3-chloro-4-fluorophenyl)carbamoyl)-7-fluoro-2,3-dihydro-1H-inden-1-yl) carbamate] | 0.16 | 
10 | O=C(N[C@H]1CCc2c(C(=O)Nc3ccc(F)c(Cl)c3)ccc(F)c21)OC[C@H]1COCCN1 [Compound 139, O—((R)-Morpholin-3-yl)methyl, N—((S)-4-((3-chloro-4-fluorophenyl)carbamoyl)-7-fluoro-2,3-dihydro-1H-inden-1-yl) carbamate Hydrochloride] | 0.62 | 
11 | COc1ccnc(COC(=O)N[C@H]2CCc3c(C(=O)Nc4ccc(F)c(Cl)c4)ccc(F)c32)c1 [Compound 140, O-(4-Methoxypyridin-2-yl)methyl, N—(S)-(4-((3-chloro-4-fluorophenyl)carbamoyl)-7-fluoro-2,3-dihydro-1H-inden-1-yl) carbamate] | 0.22 | 
12 | O=C(N[C@H]1CCc2c(C(=O)Nc3ccc(F)c(Cl)c3)ccc(F)c21)OCCO [Compound 141, O-2-Hydroxyethyl, N—(S)-(4-((3-chloro-4-fluorophenyl)carbamoyl)-7-fluoro-2,3-dihydro-1H-inden-1-yl) carbamate] |  | EC50 [1]: 0.18 µM
13 | O=C(N[C@H]1CCc2c(C(=O)Nc3ccc(F)c(Cl)c3)ccc(F)c21)OC[C@@H]1CCCO1 [Compound 142, O—((S)-Tetrahydrofuran-2-yl)methyl, N—((S)-4-((3-chloro-4-fluorophenyl)carbamoyl)-7-fluoro-2,3-dihydro-1H-inden-1-yl) carbamate] | 0.27 | 
14 | O=C(CO)N[C@H]1CCc2c(C(=O)Nc3ccc(F)c(Cl)c3)ccc(F)c21 [Compound 143, (S)—N-(3-Chloro-4-fluorophenyl)-7-fluoro-1-(2-hydroxyacetamido)-2,3-dihydro-1H-indene-4-carboxamide] |  | EC50 [1]: 1.5 µM
15 | O=C(Nc1cccnc1)N[C@H]1CCc2c(C(=O)Nc3ccc(F)c(Cl)c3)ccc(F)c21 [Compound 144, (S)—N-(3-Chloro-4-fluorophenyl)-7-fluoro-1-(3-(pyridin-3-yl)ureido)-2,3-dihydro-1H-indene-4-carboxamide] | 0.85 | 
16 | O=C(Nc1ccncc1)N[C@H]1CCc2c(C(=O)Nc3ccc(F)c(Cl)c3)ccc(F)c21 [Compound 145, (S)—N-(3-Chloro-4-fluorophenyl)-7-fluoro-1-(3-(pyridin-4-yl)ureido)-2,3-dihydro-1H-indene-4-carboxamide] | 0.93 | 

Row | SMILES | EC50 [2] [µM] | other results
17 | O=C(Nc1ccc(F)c(Cl)c1)c1ccc(F)c2c1CC[C@@H]2Nc1nccs1 [Compound 146, (S)—N-(3-Chloro-4-fluorophenyl)-7-fluoro-1-(thiazol-2-ylamino)-2,3-dihydro-1H-indene-4-carboxamide] | 0.24 | 
18 | O=C(N[C@H]1CCc2c(C(=O)Nc3ccc(F)c(Cl)c3)ccc(F)c21)OCCN1CCCCC1 [Compound 147, O-2-(Piperidin-1-yl)ethyl, N—(S)-(4-((3-chloro-4-fluorophenyl)carbamoyl)-7-fluoro-2,3-dihydro-1H-inden-1-yl) carbamate] | 1.1 | 
19 | O=C(N[C@H]1CCc2c(C(=O)Nc3ccc(F)c(C(F)F)c3)ccc(F)c21)OCc1ccccn1 [Compound 148, O-Pyridin-2-ylmethyl, N—(S)-(4-((3-(difluoromethyl)-4-fluorophenyl)carbamoyl)-7-fluoro-2,3-dihydro-1H-inden-1-yl)carbamate Hydrochloride] | 0.12 | 
20 | O=C(NCc1ccccn1)N[C@H]1CCc2c(C(=O)Nc3ccc(F)c(Cl)c3)ccc(F)c21 [Compound 149, (S)—N-(3-chloro-4-fluorophenyl)-7-fluoro-1-(3-(pyridin-2-ylmethyl)ureido)-2,3-dihydro-1H-indene-4-carboxamide Hydrochloride] | 0.21 | 
21 | N#Cc1cccc(COC(=O)N[C@H]2CCc3c(C(=O)Nc4ccc(F)c(Cl)c4)ccc(F)c32)n1 [Compound 150, O-(6-Cyanopyridin-2-yl)methyl, N—(S)-(4-((3-chloro-4-fluorophenyl)carbamoyl)-7-fluoro-2,3-dihydro-1H-inden-1-yl)carbamate] |  | EC50 [1]: 0.15 µM
22 | O=C(N[C@H]1CCc2c(C(=O)Nc3ccc(F)c(Cl)c3)ccc(F)c21)OCc1ccc2ccccc2n1 [Compound 151, O-Quinolin-2-ylmethyl, N—(S)-(4-((3-chloro-4-fluorophenyl)carbamoyl)-7-fluoro-2,3-dihydro-1H-inden-1-yl) carbamate] | 0.41 | 
23 | Cc1cnc(COC(=O)N[C@H]2CCc3c(C(=O)Nc4ccc(F)c(Cl)c4)ccc(F)c32)cn1 [Compound 152, O-(5-Methylpyrazin-2-yl)methyl, N—(S)-(4-((3-chloro-4-fluorophenyl)carbamoyl)-7-fluoro-2,3-dihydro-1H-inden-1-yl)carbamate] | 0.07 | 
24 | O=C(N[C@H]1CCc2c(C(=O)Nc3ccc(F)c(Cl)c3)ccc(F)c21)OCCN1CCOCC1 [Compound 153, O-2-Morpholinoethyl, N—(S)-(4-((3-chloro-4-fluorophenyl)carbamoyl)-7-fluoro-2,3-dihydro-1H-inden-1-yl) carbamate] | 0.47 | 
25 | O=C(N[C@H]1CCc2c(C(=O)Nc3ccc(F)c(Cl)c3)ccc(F)c21)OC1CCC(O)CC1 (stereo partly drawn) [Compound 154, O-cis-4-Hydroxycyclohexyl, N—((S)-4-((3-chloro-4-fluorophenyl)carbamoyl)-7-fluoro-2,3-dihydro-1H-inden-1-yl) carbamate] |  | EC50 [1]: 0.35 µM
26 | O=C(N[C@H]1CCc2c(C(=O)Nc3ccc(F)c(Cl)c3)ccc(F)c21)OCCCO [Compound 155, O-3-Hydroxypropyl, N—(S)-(4-((3-chloro-4-fluorophenyl)carbamoyl)-7-fluoro-2,3-dihydro-1H-inden-1-yl) carbamate] | 24 | 
27 | O=C(N[C@H]1CCc2c(C(=O)Nc3ccc(F)c(Cl)c3)ccc(F)c21)OC1CCC(O)CC1 (stereo partly drawn) [Compound 156, O-trans-4-Hydroxycyclohexyl, N—((S)-4-((3-chloro-4-fluorophenyl)carbamoyl)-7-fluoro-2,3-dihydro-1H-inden-1-yl) carbamate] |  | EC50 [3]: 0.22 µM
28 | CC(=O)NCCOC(=O)N[C@H]1CCc2c(C(=O)Nc3ccc(F)c(Cl)c3)ccc(F)c21 [Compound 157, O-2-Acetamidoethyl, N—(S)-(4-((3-chloro-4-fluorophenyl)carbamoyl)-7-fluoro-2,3-dihydro-1H-inden-1-yl) carbamate] | 0.26 | 
29 | CCC(=O)N[C@H]1CCc2c(C(=O)Nc3ccc(F)c(Cl)c3)ccc(F)c21 [Compound 158, (S)-N-(3-chloro-4-fluorophenyl)-7-fluoro-1-propionamido-2,3-dihydro-1H-indene-4-carboxamide] |  | EC50 [1]: 0.81 µM
30 | COc1ccnc(N[C@H]2CCc3c(C(=O)Nc4ccc(F)c(Cl)c4)ccc(F)c32)n1 [Compound 159, (S)—N-(3-Chloro-4-fluorophenyl)-7-fluoro-1-((4-methoxypyrimidin-2-yl)amino)-2,3-dihydro-1H-indene-4-carboxamide] | 0.69 | 
31 | Cc1ccnc(N[C@H]2CCc3c(C(=O)Nc4ccc(F)c(Cl)c4)ccc(F)c32)n1 [Compound 160] | 0.25 | 
32 | COc1nccc(N[C@H]2CCc3c(C(=O)Nc4ccc(F)c(Cl)c4)ccc(F)c32)n1 [Compound 161, (S)—N-(3-Chloro-4-fluorophenyl)-7-fluoro-1-((2-methoxypyrimidin-4-yl)amino)-2,3-dihydro-1H-indene-4-carboxamide] | 0.27 | 
